By IC50 is commonly meant the concentration that inhibits the measured activity by half. Higher therefore signals weaker potency in that assay.

Test [1] has as its system SGC-7901 cells. The experiment in a line: Annexin V-FITC/PI cell apoptosis assay, SGC-7901 cells. As to conditions: SGC-7901, high dose, 48 h. Format: cell-based. As for the experimental part: Bcl-2 regulated by the Hippo/YAP plays an important role in cell apoptosis. Therefore, we next examined the effects of compound 9i on cell apoptosis. MGC-803 and SGC-7901 cells were treated with compound 9i for 48 h, as shown in Figures 5(A,B), the nuclei of gastric cancer are dense and fragmented, and cells became round, small, and was induced to die. To determine the influence of compound 9i on cell death, MGC-803 and SGC-7901 cells treated with compound 9i were stained with Annexin V-FITC/PI. As shown in Figure 5(C), the high dose compound 9i treatment group induced over 60% of cell apoptosis at 48 h. As shown in Figure 5(D), some other apoptosis-related proteins were also regulated by compound 9i in MGC-803 and SGC-7901 cells. Compound 9i caused dose-dependent decreases of anti-apoptosis proteins c-IAP and Mcl-1. […] Mitochondrial membrane potential depolarisation and translocation from the mitochondria to the cytoplasm of cytochrome c are two key steps involved in the intrinsic apoptosis pathway. As shown in Figures 5(F–H), compound 9i depolarised mitochondrial membrane potential and induced the translocation of cytochrome c.
Figure 5. Compound 9i induced apoptosis in MGC-803 and SGC-7901 cells. Density ratios relative to β-Actin were shown on the top of each Western blotting band. […] The cell line of each row appears only in tiny plot titles that cannot be read with certainty. […]

The subject of test [2] is tubulin. Put plainly: Tubulin polymerization, extracellular. Format: biochemical. The conditions noted are these: 3 μmol/L. From the text:
(§1) In this work, compound 9i was design and synthesized by SAR study of our reported tertiary amide derivatives compound 1 and compound 2. Therefore, we tested the influence of compound 9i on tubulin polymerization and AKT/mTOR and ERK […]
(§2) influence on tubulin polymerization and P38, ERK, AKT, mTOR and Wnt pathways . […]
(§3) pathway. Therefore, we here reported N-sulfonamide-quinazoline derivatives as novel anti-gastric cancer agents via activating the Hippo signaling pathway in vitro and in […]
(§4) Supporting Figure S1. A. Activity of compound 9i on tubulin polymerization . Tubulin polymerization extracellular, concentrations of Paclitaxel, Colchicine and 9i were 3 μmol/L; Activity of compound 9i on P38, ERK, AKT, mTOR and Wnt pathways, cells were incubated with […]
(§5) (1 picture or pasted object on this page, not shown here)

Test [3] has as its system P38, ERK, AKT, mTOR and Wnt pathways. Put plainly: Activity on P38, ERK, AKT, mTOR and Wnt pathways in cells. It is filed as cell-based. As to conditions: 20, 40 and 60 nM, 48 hours.
Excerpt: as §1, §2, §3, §4, §5

Test [4] deals with PC-3 cells. Put plainly: MTT antiproliferative assay, PC-3 cells. It is filed as cell-based, human. The conditions noted are these: Homo sapiens, PC-3, exposure for 48 h. How it is done: The in vitro antiproliferative activities of new target compounds 6a–6g, 9a–9i, 10a–10j, 11a–11j, and 14a–14d were evaluated against four human cancer cell lines (MGC-803, PC-3, HCT-116, and MCF-7) using MTT assay and 5-FU as a positive drug. The following Tables 1–[4] depicted the results of in vitro antiproliferative activity.
Cell lines used were cultured in humidified incubator in a humidified atmosphere of 5% CO2 and 95% air. The RPMI-1640 medium was supplemented with 10% foetal bovine serum, penicillin (100 U/ml) and streptomycin (0.1 mg/ml).
Cell lines were seeded into 96-well plates and incubated for 24 h. Then cells were treated with different concentrations of compounds. And after another 48 h, MTT reagent (20 μL per well) was added to each well and then incubated at 37 °C for 4 h. After the suspension was discarded, formazan was then dissolved with DMSO. Absorbencies of formazan solution were measured at 490 nm. The IC50 values of tested compounds were calculated by SPSS version 17.0.
(Formazan colour is commonly taken as a measure of viable cells.)

Regarding `COc1ccc(S(=O)(=O)N(Cc2nc(C)c3ccccc3n2)c2cc(OC)c(OC)c(OC)c2)cc1` [Compound 9i, 4-Methoxy-N-((4-methylquinazolin-2-yl)methyl)-N-(3,4,5-trimethoxyphenyl) benzene-sulfonamide], in test [1], the cell apoptosis entry was “over 60%”. The “influence on tubulin polymerization” value in test [2] is listed as “no strong influence”. In addition, in test [3], the “influence on P38, ERK, AKT, mTOR and Wnt pathways” value is on record as “no strong influence”. Moreover, the midpoint of inhibition in test [4], the IC50, lay at 1040 ± 130 nM.
